Experimental findings from patent publication US9663517B2, “Compositions and uses thereof” (Plexxikon Inc., priority 2009, dated 2017) are described below.

Molecules are shown by their SMILES.

The nature of the series: pKa of weakly basic centre. It is filed as physicochemical. The settings on record: N-7 of the azaindole portion. The text has this: Propane-1-sulfonic acid {3-[5-(4-chloro-phenyl)-1H-pyrrolo[2,3-b]pyridine-3-carbonyl]-2,4-difluoro-phenyl}-amide is characterized as having functionalities providing both weakly basic and weakly acidic centers which can form organic salt complexes, resulting in improved solubility. For example, the N-7 of the azaindole portion is weakly basic (pKa approximately 4-5) and can form an acid addition salt complex with an organic acid such as benzenesulfonic acid, methylsulfonic acid or toluenesulfonic acid, preferably methanesulfonic acid or toluenesulfonic acid. Such mesylate or tosylate salts provide advantage over the free base, such as an improved solubility, improved intrinsic dissolution rate, and lower melting point than the free base. The improved intrinsic dissolution rate provides an advantage in formulation of the salt, for example, formulation in an amorphous form by methods described in the above examples. The improved solubility provides more efficient and cost effective formulation, for example spray drying or microprecipitated bulk processing can be performed using far less solvent volumes due to the intrinsic solubility. Such advantages may also be provided by formation of the mesylate or tosylate salt in situ during the processing, for example the process of spray drying, solvent controlled precipitation, or pH controlled precipitation. […]

The compound `CCCS(=O)(=O)Nc1ccc(F)c(C(=O)c2c[nH]c3ncc(-c4ccc(Cl)cc4)cc23)c1F` [Compound I, propane-1-sulfonic acid {3-[5-(4-chloro-phenyl)-1H-pyrrolo[2,3-b]pyridine-3-carbonyl]-2,4-difluoro-phenyl}-amide] showed a pKa of 4 to 5.

The term pKa denotes the pH at which an ionisable group is half protonated. Low readings indicate a stronger acid or weaker base, high ones a weaker acid or stronger base.
